Data as given in patent US20130189255A1, “FUSIONS AND CONJUGATES OF INSULINOTROPIC AGENTS” (GLAXO GROUP LIMITED, priority 2008, published 2013).
Entries after “also recorded” stand apart in the source; their conditions may differ. Read-outs that look alike come from different tables or passages of the source. Marks after values point to notes of the source that are not given here.

Legend:
human GLP-1 receptor = biological target: T1, human GLP-1 receptor (Homo sapiens, UniProt P43220); test: GLP-1 receptor binding assay (GLP-1R BA), CHO 6CRE GLP1R luciferase reporter cells; type: cell-based
T1 construct: expressed in transfected cells; host or cells: CHO K1 (CHO 6CRE GLP1R)
T1 sequence (P43220 24-463): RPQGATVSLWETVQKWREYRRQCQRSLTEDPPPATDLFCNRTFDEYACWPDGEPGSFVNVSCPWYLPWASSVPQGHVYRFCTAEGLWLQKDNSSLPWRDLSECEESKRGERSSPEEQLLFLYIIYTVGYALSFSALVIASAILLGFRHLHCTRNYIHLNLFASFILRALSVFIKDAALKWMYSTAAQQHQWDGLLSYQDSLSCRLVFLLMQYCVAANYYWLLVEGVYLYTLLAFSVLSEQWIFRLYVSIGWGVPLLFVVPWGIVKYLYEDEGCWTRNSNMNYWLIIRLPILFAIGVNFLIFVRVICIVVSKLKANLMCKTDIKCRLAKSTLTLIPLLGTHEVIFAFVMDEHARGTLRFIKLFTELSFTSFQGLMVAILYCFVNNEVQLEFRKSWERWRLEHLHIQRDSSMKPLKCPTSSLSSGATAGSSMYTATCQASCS
Description: Fusions were buffer exchanged into 100 mM […], 20 mM citrate pH 6.2. […] Suspension culture was maintained for 24 hours. Cells were then diluted into 15 mM HEPES buffer (obtainable from Sigma), containing 2 mM L glutamine (2.5×10^5 cells/ml) and dispensed into 384-well plates containing 10 ul/well of the compound to be assayed. After the addition of assay control, plates were returned to the incubator for 3 h at 37° C. and 5% CO2. After the incubation, steady glo luciferase substrate (obtainable from Promega) was added to the wells as described in the kit and the plates sealed with self-adhesive plate seals (Weber Marking Systems Inc. Cat. No. 607780). Plates were placed in the reader (Viewlux, Perkin Elmer) and pre-incubated for 5 minutes prior to reading the […] and plotting of results. Compound was assayed at a range of concentrations in the presence and absence of 10 uM albumin, allowing a dose response curve to be fitted with and without the albumin.

db/db mice = test: Oral glucose tolerance test (OGTT) in db/db mouse model of type II diabetes; type: in vivo
Excerpt: Animals were sorted by decreasing glucose levels three days prior to the start of the experiment and then blocked. One animal within each block was then assigned to each of the 26 study groups. This ensured similar mean starting glucose level in each of the study groups.

[1] = mouse, in vivo, 1 mg/kg
Description: This was followed by ion exchange chromotography on a Resource S column using a 0-1M salt gradient in 20 mM acetate pH5.0. Fractions containing the desired protein were then combined and buffer exchanged into 100 mM NaCl, 20 mM citrate pH6.2. Protein was filter sterilised, buffer exchanged and endotoxin removed ant tested prior to use in vivo. […] At predose, 0.25, 0.5, 1, 4, 7, 12, 24, 36, 48 and 60 hours after dosing for the iv doses and predose, 0.5, 1, 4, 7, 12, 24, 36, 48 and 60 hours after dosing for the sc doses blood samples were collected by terminal bleed and plasma prepared. Plasma samples were frozen and later defrosted for analysis of DAT0115, DAT0116 or DAT0117 levels as appropriate by solid phase extraction and LC/MS/MS to detect the presence of a fragment of the protein (from the exendin-4 section of the protein). Calculated plasma levels were then used to fit pharmacokinetic parameters using WinNonLin software. Half life after subcutaneous and intravenous administration and bioavailability is outlined in the table below. It was concluded from the results (see table 7 below) that all three compounds show desirable pharmacokinetic parameters in a mouse model of type II diabetes.

[2] = rat, in vivo
Description: This was followed by ion exchange chromotography on a Resource S column using a 0-1M salt gradient in 20 mM acetate pH5.0. Fractions containing the desired protein were then combined and buffer exchanged into 100 mM NaCl, 20 mM citrate pH6.2. Protein was filter sterilised, buffer exchanged and Qced prior to use in vivo.
Calculated plasma levels were then used to fit pharmacokinetic parameters using WinNonLin software. Half life after subcutaneous and intravenous administration and bioavailability is outlined in the table 8 below. It was concluded from the results that all three compounds show desirable pharmacokinetic parameters in rat.

[3] = In solution state by SEC MALLS; type: physicochemical; conditions: Superdex 200, 20 mM citrate, 0.1M NaCl
Description: The aim of this experiment was to determine the in solution state of DAT0115, DAT0117 and DAT0120 by SEC MALLS. Samples were purified and dialysed into appropriate buffer (PBS) and filtered after dialysis, concentration was determined and adjusted to 1 mg/ml. BSA and HSA were purchased from Sigma and used without further purification. Shimadzu LC-20AD Prominence HPLC system with an autosampler (SIL-20A) and SPD-20A Prominence UV/Vis detector was connected to Wyatt Mini Dawn Treos (MALLS, multi-angle laser light scattering detector) and Wyatt Optilab rEX DRI (differential refractive index) detector. The detectors were connected in the following order—LS—UV—RI. Both RI and LS instruments operated at a wavelength of 488 nm. […] The traces are then analysed using ASTRA software, and the signals are normalised aligned and corrected for band broadening following manufacturer's instructions. […] The dilution that takes place on the column is about 10 fold, so the concentration at which in-solution state is determined is 100 ug/ml, or about 8 uM dAb. […] 16, 1093-1099 (1948)]: The calculations were performed automatically by ASTRA software, resulting in a plot with molar mass determined for eath of the slices [Astra manual]. […]

Exendin 4 (G4S linker)3 DOM7h-14 dAb fusion [DAT0115]
EC50 (human GLP-1 receptor; read-out: GLP-1R BA (10 uM albumin) EC50 (pM) n = 2, presence of 10 uM albumin): 35 pM
EC50 (human GLP-1 receptor; read-out: GLP-1R BA EC50 (pM) n = 3, absence of albumin): 8.9 pM
timepoints out to which glucose AUC was significantly decreased compared to vehicle (db/db mice; 0.1 mg/Kg and 0.3 mg/Kg doses sc): ≤ 24 h
percentage reduction in glucose AUC compared to vehicle (db/db mice; 0.1 mg/kg sc, OGTT +5 hrs relative to dosing): 60%*
percentage reduction in glucose AUC compared to vehicle (db/db mice; 0.1 mg/kg sc, OGTT +24 hrs): 36%*
percentage reduction in glucose AUC compared to vehicle (db/db mice; 0.1 mg/kg sc, OGTT +48 hrs): 28%
percentage reduction in glucose AUC compared to vehicle (db/db mice; 0.1 mg/kg sc, OGTT +72 hrs): 16%
percentage reduction in glucose AUC compared to vehicle (db/db mice; 0.1 mg/kg sc, OGTT +96 hrs): −12%
percentage reduction in glucose AUC compared to vehicle (db/db mice; 0.3 mg/kg sc, OGTT +24 hrs): 59%*
percentage reduction in glucose AUC compared to vehicle (db/db mice; 0.3 mg/kg sc, OGTT +48 hrs): 26%
percentage reduction in glucose AUC compared to vehicle (db/db mice; 0.3 mg/kg sc, OGTT +72 hrs): 26%
timepoints out to which glucose AUC was significantly decreased compared to vehicle (db/db mice; 1 mg/Kg dose sc): ≤ 72 h
percentage reduction in glucose AUC compared to vehicle (db/db mice; 1 mg/kg sc, OGTT +5 hrs): 76%*
percentage reduction in glucose AUC compared to vehicle (db/db mice; 1 mg/kg sc, OGTT +24 hrs): 50%*
percentage reduction in glucose AUC compared to vehicle (db/db mice; 1 mg/kg sc, OGTT +48 hrs): 37%*
percentage reduction in glucose AUC compared to vehicle (db/db mice; 1 mg/kg sc, OGTT +72 hrs): 41%*
percentage reduction in glucose AUC compared to vehicle (db/db mice; 1 mg/kg sc, OGTT +96 hrs): 12%
Bioavailability [1]: 65%
Half-life after intravenous administration ([1]; iv): 13.8
Half-life after subcutaneous administration ([1]; sc): 18.6
Bioavailability [2]: 81%
Half-life after intravenous administration ([2]; iv, 0.3 mg/kg): 4.9 h
in-solution state (self association) ([3]; pH6.2): eluted in a single peak; also recorded: significantly less (and possibly no) self association
Mw determined across the peak (SEC MALLS) ([3]; pH6.2, 0.5 ml/min, expected monomer 16.9 kDa): 17.4 kDa
